According to the METLIN SMRT retention time set (Domingo-Almenara et al. 2019):

assay: gradient 5% acetonitrile 3 min, to 50% in 2 min, to 85% in 15 min, held 3 min, 100 µL/min; conditions: column: Zorbax Extend-C18 2.1 x 50 mm; eluents: water / acetonitrile, 0.1% formic acid
Outline: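 Values are retention times taken from adduct peaks that software picked and an analyst inspected. The pure standards were run as mixtures of ~100 molecules on HPLC linked to a quadrupole time-of-flight mass spectrometer, in positive and negative ionization mode. A Zorbax Extend-C18 column (2.1 × 50 mm, 1.8 μm) was used at 100 μL/min with water and acetonitrile, each including 0.1% formic acid.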

Compound	RP-LC retention time
COc1ccc(-c2cn3c(CC(=O)NCc4cccc(Br)c4)csc3n2)cc1OC	764 s
CC(C)C(=O)NC(c1ccc(F)cc1)c1nnc(-c2ccccc2)o1 (stereo not drawn)	856 s
O=C(NC1CCCCCC1)C1CCN(C(=O)c2ncn3c2COC(c2ccc(Cl)cc2)C3)CC1 (stereo not drawn)	900 s
CCC1CN(C(=O)Nc2ccc(OC)cc2)c2ccccc2O1 (stereo not drawn)	968 s
Cc1ccc(C)c(N2CCN(c3ccnc(SCC(=O)Nc4cc(Cl)ccc4C)n3)CC2)c1	952 s
CS(=O)(=O)Nc1cccc(OCc2nnc(-c3ccccc3)o2)c1	798 s
O=C(c1cnccn1)N1CCC2(CC1)N=C(c1ccccc1)NO2	641 s
CC1(C(=O)NCc2ccccc2)CCCN(C(=O)NCCc2ccccc2)C1 (stereo not drawn)	840 s
CCn1c(=O)sc2cc(S(=O)(=O)N3CCC(C(=O)NCc4ccc(OC)cc4)CC3)ccc21	978 s
C=CCN1C(=O)COc2ccc(-c3nc(NC(=O)c4ccc(Cl)cc4)sc3C)cc21	1140 s
COc1ccc(OC)c(CN2C[C@@H]3C(=O)N(C)C(=O)[C@@H]3C2)c1	574 s
COCCCNC(=O)C1c2ccccc2C(=O)N(C)C1c1ccc(OC)c(OC)c1 (stereo not drawn)	666 s
CCc1cc(=O)n(CC(=O)Nc2ccccc2)c(-c2ccccc2)n1	1090 s
Cc1nn(-c2ccc(-c3ccccc3)nn2)c(C)c1S(=O)(=O)NCc1ccc(F)cc1	988 s
O=S(=O)(c1cc(-c2nnc(C3CCC3)o2)co1)N1CCN(c2ccccn2)CC1	671 s
COC(=O)C1=CN(c2ccc(N(C)C)cc2)c2cc(F)ccc2S1(=O)=O	926 s
O=C(c1c[nH]c2ccccc12)N1CCC2(CC1)NC(=O)N(Cc1ccccc1)C2=O	750 s
Cc1ccc(CNC(=O)C2=CCN(Cc3cccc(F)c3)CC2)o1	626 s
O=S(=O)(c1cnc[nH]1)N1CCC(c2nc(CCOc3ccc(F)cc3)no2)C1 (stereo not drawn)	762 s
O=S(=O)(c1ccc2nc(N3CCN(c4ccccc4F)CC3)ccc2c1)N1CCOCC1	939 s
Cc1nn(CC(=O)N(C)Cc2ccccc2)c(=O)c2nc(-c3ccccc3)sc12	942 s
O=c1ccc(N2CCCN(S(=O)(=O)c3ccc(F)cc3F)CC2)nn1-c1ccc(Cl)cc1	966 s

Compound	RP-LC retention time
CCOC(=O)N1CCC(N2CCCC(COc3ccccc3C(=O)N3CCCC3)C2)CC1 (stereo not drawn)	612 s
CC1CCN(S(=O)(=O)c2ccc(-c3nnc(C4CC4)o3)o2)CC1	933 s
CCOC(=O)c1c(S(=O)(=O)N2CCC(C(=O)NCc3ccccc3Cl)CC2)c(C)n(C)c1C	862 s
CCOc1nccnc1N1CCC(NC(=O)Cc2cccnc2)C1 (stereo not drawn)	534 s
Cc1cccc(N2CCN(Cc3nc4nc(C)cc(N(C)C)n4n3)CC2)c1	634 s
Cc1cccc(-n2c(=O)c3c(cc(C)n3C)n(CC(=O)Nc3ccccc3)c2=O)c1	852 s
COc1ccc(-c2noc(-c3nc(C)no3)n2)cc1	920 s
COc1ccc(C2CC(=O)c3c([nH]c(C(=O)OC4CCCC4C)c3C)C2)cc1OC (stereo not drawn)	1050 s
CCC(C)NC(=O)c1c(C)sc2ccn(Cc3ccc(F)cc3)c(=O)c12 (stereo not drawn)	929 s
O=C(CSc1nnc(-c2cccc(Cl)c2)o1)Nc1ccc(C(F)(F)F)cc1	1050 s
CN(C)c1nc(Nc2ccc(F)cc2)c2cnn(-c3ccccc3)c2n1	1310 s
Cc1ccc(NC(=O)C2CCCN2S(=O)(=O)c2cc3c(cc2Cl)NC(=O)CO3)cc1 (stereo not drawn)	800 s
O=C(NC1CCCC1)C1CCCN(S(=O)(=O)Cc2ccc(Cl)cc2)C1 (stereo not drawn)	910 s
O=C(C1=CN(c2cccc(F)c2)c2cc(F)ccc2S1(=O)=O)N1CCCCC1	872 s
N#Cc1ccc(C(=O)N2CCOCCNC(=O)[C@@H]3CCC[C@@H]32)cc1	659 s
O=C1CCCC(=O)C1C(=O)c1ccc(C(F)(F)F)cc1[N+](=O)[O-]	1070 s
CCN1CCN(c2cc(C(=O)O)c3cc(NS(=O)(=O)c4ccc(C(C)C)cc4)ccc3n2)CC1	724 s
CC1(C(=O)NCc2ccccc2)CN(S(=O)(=O)c2ccccc2)CC(=O)N1CCC1=CCCCC1 (stereo not drawn)	1090 s
O=C(c1ccc(Cl)cc1)N1CCN(S(=O)(=O)c2cc3c4c(c2)CCC(=O)N4CCC3)CC1	838 s
Cc1ccc(NC(=O)Cn2nc(-n3cccc3)c3c(C)cc(C)nc32)c(C)c1	1080 s
Cc1nc(NC(=O)c2ccccc2)nc2cc3c(cc12)OCO3	688 s
COc1cc2c(cc1CNC(=O)C(=O)c1c[nH]c3ccccc13)OCCCO2	1320 s

Compound	RP-LC retention time
CCn1cnc(S(=O)(=O)N2CCC(C(=O)NCc3cccs3)CC2)c1	658 s
Cc1cccc(-c2noc(Cn3c(=O)n(-c4ccccc4)c(=O)c4sccc43)n2)c1	1000 s
COc1cccc(-c2cc(N3CCN(C(=O)NC(C)C)CC3)ncn2)c1	612 s
CC(C)n1c(=O)sc2cc(S(=O)(=O)N3CCC(C(=O)N(C)Cc4ccccc4)CC3)ccc21	997 s
CCCc1nc(-c2c(C)cc(C)nc2NC(=O)c2ccccc2F)no1	883 s
COc1ccc(CNC(=O)c2nnn(Cc3nc(-c4ccc(C)cc4)oc3C)c2N)cc1OC	935 s
O=C(c1ccsc1)N1CCC(OCc2nc(C3CC3)no2)CC1	762 s
COc1ccc(C(O)CN2CCN(C3CCCCC3)CC2)cc1 (stereo not drawn)	540 s
Cc1ccccc1CC(=O)Nc1ccc2c(c1)Sc1ncccc1C(=O)N2C	806 s
COC(=O)c1cccc(Nc2c(-c3ccc(Cl)cc3)nc3cnccn23)c1	905 s
CC(=O)N1CCc2cc(N3CC(C(=O)Nc4cccc(C)c4)CC3=O)ccc21 (stereo not drawn)	712 s
NC(=O)c1c(NC(=O)C2COc3ccccc3O2)sc2c1CCN(Cc1ccccc1)C2 (stereo not drawn)	587 s
CCCC(=O)N1CCC(C(=O)Nc2ccc(OCC)cc2)CC1	718 s
O=C(Cc1ccc(Cl)cc1)N1CCCN(C2CCN(CC3CC3)C2=O)CC1 (stereo not drawn)	581 s
CCS(=O)(=O)N1CCc2ccc(NC(=O)c3ccco3)cc2C1	682 s
Cc1csc(-c2cn(CC(=O)NCc3cccc(C(F)(F)F)c3)cn2)n1	716 s
Cc1occc1C(=O)N1CC(F)(F)C[C@H]1c1nc(C2CC2)no1	726 s
Cc1cccc(NC(=O)Cn2nc3c(Oc4cccc(Cl)c4)nccn3c2=O)c1	899 s
COc1ccc(NC(=O)C2CC(=O)N(c3n[nH]c4ccccc34)C2)cn1 (stereo not drawn)	646 s
COc1ccc(-c2nc3cnccn3c2Nc2ccc(C(=O)NC(C)C)cc2)cc1OC	661 s
CCCCN(CC)C(=O)Cn1c(=O)c2cnc(-c3ccccc3)nc2n(C)c1=O	1070 s
O=C(Nc1cccc(Br)c1)C1CCCN(c2ncc(-c3ccccc3)cn2)C1 (stereo not drawn)	1250 s

Compound	RP-LC retention time
CCN1c2cc(C(=O)NC3CCCCC3)ccc2C(=O)N2CCCCC21 (stereo not drawn)	853 s
O=C(CCS(=O)(=O)c1ccc(Cl)cc1)Nc1nccs1	679 s
CN(C)c1ccc(CCNC(=O)c2cccc(C(F)(F)F)c2)cc1	621 s
Cn1ncc2c(Nc3cccc([N+](=O)[O-])c3)ncnc21	683 s
O=C(c1ccco1)N1CCCC(c2ccnc(-c3ccccc3)n2)C1 (stereo not drawn)	962 s
CN1CCn2cc(S(=O)(=O)Nc3ccc(Cl)cc3)cc2C1=O	720 s
N#Cc1ccc(NC(=O)Cn2cc(-c3ccccc3)c3ncn(C4CC4)c(=O)c32)cc1	885 s
Cc1noc(C)c1CN1CCCCC1c1nc(-c2ccncc2)no1 (stereo not drawn)	649 s
Nc1nnc(-c2ccc(Br)s2)o1	628 s
O=S(=O)(c1cc(-c2ccno2)cs1)N1CCN(c2ncccn2)CC1	843 s
O=C(NC1CC1)[C@@H]1C[C@H](Oc2cccnc2)CN1C(=O)c1ccco1	538 s
Cc1cc(NS(=O)(=O)c2ccc3c(c2)C(=O)N(C)c2ncccc2O3)ccc1F	951 s
CCNC(=O)C1CCc2sc(C(=O)N(C)C)cc2C1 (stereo not drawn)	617 s
Cc1ccc(S(=O)(=O)c2cnc(N3CCC4(CC3)OCCO4)nc2N)cc1C	900 s
Cc1nn(CC(=O)N2CCC(Cc3ccccc3)CC2)c(=O)c2noc(C)c12	832 s
CCOc1cccc(=O)c2c(C)n(-c3nc(-c4ccc(OC)cc4)c(C)s3)c(C)c12	1160 s
Cc1ccc(CNC(=O)C2CCN(c3cncnc3N3CCCC3)CC2)cc1	662 s
CC(C)(C)n1nnnc1C1CC2(CCOCC2)C(=O)N1CCc1nc2ccccc2[nH]1 (stereo not drawn)	604 s
COc1ccc2c(=O)c3c(=O)n(Cc4ccccc4)c(-c4cccs4)nc3oc2c1	743 s
COc1ccccc1-c1nc(Cn2nnc(-c3nc(-c4ccc(Cl)cc4)no3)c2C)c(C)o1	1220 s
Nc1cc(C2CCN(C(=O)c3ccc(Cl)cc3)CC2)no1	705 s
Cc1cc(C)c2c(-n3cccc3)nn(CC(=O)NCC3CCCO3)c2n1 (stereo not drawn)	753 s
